Measurements as given in PMC10257291, “Biological activities of extracts and compounds from Thai Kae-Lae (Maclura cochinchinensis (Lour.) Corner)” (BMC Complementary Medicine and Therapies, 2023).
Entries after “also recorded” stand apart in the source; their conditions may differ.

Legend:
NO = assay: Nitric oxide measurement in LPS-stimulated RAW 264.7 cells; assay type: cell-based, mouse; conditions: sample at IC20 value; vs dexamethasone; LPS 1 μg/mL
Method: Mouse monocyte macrophage RAW 264.7 cells (American Type Culture Collection, ATCCTIB-71) were stimulated with lipopolysaccharide (LPS) or phytohemagglutinin (PHA). The LPS treated RAW 264.7 cells served as a vehicle control, of which the NO production, and the secreted cytokines were defined as 100%, whereas a negative control was non-treated RAW 264.7 cells. Dexamethasone (an anti-inflammatory drug) was used as a positive control.
Briefly, 1 × 10^5 cells/well in DMEM were seeded and incubated for 24 h in a CO2 incubator set at 37 °C and 5% CO2/95% humidified air. Then cells were treated with Kae-Lae extracts or purified compounds. Following 2-h of incubation in a CO2 incubator, LPS was added to make a final concentration of 1 μg/mL. After 24 h in a CO2 incubator, the media were removed and centrifuged at 13,500 × g for 10 min. The supernatant was analysed for the level of NO using Total Nitric Oxide Assay kit, according to the manufacturer’s protocol (Invitrogen™, ThermoFisher Scientific, MA, USA). The optical density was measured at 540 nm using a multimode detector (Beckman CoulterDTX880, Fullerton, CA, USA).
NO inhibitions were calculated using the following equation:
3 %NOinhibition=A-B/A×100
A is the optical density of the mixture without the sample, while B is the optical density of the mixture with the sample. Dexamethasone was used as a positive control. […]

WT1 protein = WT1 protein expression by Western blot in EoL-1 cells; assay type: cell-based, human; conditions: IC20 value, 48 h, vs vehicle control
Method: Leukaemic stem cells (KG-1a) and leukaemic cells (EoL-1 and K562) were used as cell models which overexpressed WT1 protein expression. Cells were treated with crude fractional extracts and active compounds at a 20% growth inhibition (IC20 value) of each extract. Following 48-h of incubation, cells were washed. The whole protein was extracted using RIPA buffer. The protein concentration was determined by the Pierce™ BCA Protein Assay Kit (ThermoFisher Scientific, IL, USA). Extracted protein sample at 30 − 50 μg was loaded to 12% SDS-PAGE and then transferred to PVDF membranes. The method was done as previously described. The specific protein bands were determined by Luminata™ Forte Western HRP substrate (Merck, Darmstadt, Germany) and exposed to X-ray film (Sakura, Japan). Quantity One 1-D Analysis software (Bio-Rad, USA) was used to quantify densitometry. The density values of WT1 bands were normalized to GAPDH bands.

KG-1a cells = assay: Total cell number by trypan blue exclusion, KG-1a cells; assay type: cell-based, human; conditions: IC20 value, 48 h, vs vehicle control
Method: According to the principle of trypan blue exclusion, viable cells with intact membranes can exclude trypan blue dye, while dead cells with compromised membranes are stained by the trypan blue dye solution. A cell suspension and trypan blue dye solution (0.2%) were mixed, and viable and dead cells were counted under microscope using a hemacytometer. Then, the percentage of viable cells was calculated. KG-1a, EoL-1 and K562 cells were cultured with crude fractional extracts and active pure compounds at various concentrations (10 − 20% growth inhibition; IC10 − IC20 values) of each extract for 48 h, at a 20% growth inhibition (IC20 value) of each extract for 24 and 48 h. Following incubation, cells were harvested, and the total cell number was counted using trypan blue exclusion method. Three independent experiments were plotted as a dose–response curve and compared with the vehicle control. Meanwhile, the total cell number of each cell line after fractional extract and pure compound treatments at 24 and 48 h were calculated and plotted as a time-response curve. Slopes from each graph were considered as the rate of cell proliferation.

Compound	NO inhibition (NO)	suppression of WT1 protein expression in EoL-1 cells (WT1 protein) [%]	suppression of WT1 protein expression in EoL-1 cells (WT1 protein; listed as resveratrol) [%]	decrease of total cell number, KG-1a cells (KG-1a cells) [%]
O=c1c(O)c(-c2ccc(O)c(O)c2)oc2cc(O)cc(O)c12 [Quercetin, quercetin]	potent inhibitory activities against NO; also recorded: significantly more potent inhibition of IL-2, TNF-α, and NO than dexamethasone			
Oc1ccc(/C=C/c2cc(O)cc(O)c2)cc1 [Resveratrol, resveratrol]		76.73	76.73 ± 4.08	39.23
